# Columns and labels:
# [1] = molecular target: T1, BAZ2B bromodomain (Homo sapiens, UniProt Q9UIF8); assay: Direct ITC titrations; type: binding; design: successful targeting of the challenging BAZ2B bromodomain; made in house; host or cells: E. coli BL21(DE3); details: in words
# T1 sequence (Q9UIF8 2060-2164 limits assumed): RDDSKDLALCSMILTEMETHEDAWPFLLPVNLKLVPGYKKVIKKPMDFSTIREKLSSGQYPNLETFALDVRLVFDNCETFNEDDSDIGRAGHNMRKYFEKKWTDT
# [2] = Solubility (qualitative remarks); type: physicochemical; details: in words
# [3] = molecular target: T1, BAZ2B bromodomain; assay: AlphaLISA competitive peptide displacement (antipentahis acceptor beads); details: in words
# [4] = molecular target: T2, BRD2-BD1 (Homo sapiens, UniProt P25440); assay: AlphaScreen fragment screen; type: binding; details: fragment library screen
# T2 construct: screened against the bromodomains of BRD2-BD1 and CREBBP
# [5] = molecular target: T3, CREBBP (Homo sapiens, UniProt Q92793); assay: AlphaScreen fragment screen; type: binding; details: fragment library screen
# T3 construct: screened against the bromodomains of BRD2-BD1 and CREBBP
# T3 sequence (Q92793 1085-1192 limits assumed): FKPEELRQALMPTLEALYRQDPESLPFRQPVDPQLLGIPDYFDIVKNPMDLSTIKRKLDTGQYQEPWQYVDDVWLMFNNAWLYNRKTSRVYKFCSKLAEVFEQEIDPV
# T2 sequence (P25440 74-180 limits assumed): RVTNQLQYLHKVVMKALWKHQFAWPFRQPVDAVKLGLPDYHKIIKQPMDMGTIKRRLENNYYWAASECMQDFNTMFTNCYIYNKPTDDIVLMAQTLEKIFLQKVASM
solubility [2],hit in fragment screen [4],hit in fragment screen [5],SMILES,also measured
improved solubility,,,CNC(=O)N1CCc2[nH]c3ccc(Cl)cc3c2C1 [Compound 40],
poor solubility,hits,hits,CC(=O)N1CCc2[nH]c3ccc(Cl)cc3c2C1 [Compound 6],

# Second part, the molecule before the results:
SMILES,solubility [2],hit in fragment screen [4],hit in fragment screen [5],also measured
CC(=S)N1CCc2[nH]c3ccc(Cl)cc3c2C1 [Compound 38],,,,binding to the protein [1]: Neither of these bound
NC(=S)N1CCc2[nH]c3ccc(Cl)cc3c2C1 [Compound 39],,,,binding to the protein [3]: Neither of these bound
CNC(=O)c1cc(C)n(C)n1 [Compound 5],,hits,hits,
